Source: ChEMBL document CHEMBL1201862, “PubChem BioAssay data set” (2004)
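Results reflect a 48-hour exposure of cells in 96-well plates to compound at five concentrations. GI50: concentration for 50% inhibition of growth.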 Activity calls are given as the source filed them. Cut-off read from the data, not from the text of the source: active = GI50 up to about 1.1 µM and inactive = higher.

How the values were obtained:
Assay in all cases: inhibition of tumour cell growth, NCI panel, 48 h
A498 = system: A498
DLD-1 = system: DLD-1
HT-29 = system: HT-29
LOX IMVI = system: LOX IMVI
LXFL 529 = system: LXFL 529
NCI-H226 = system: NCI-H226
OVCAR-8 = system: OVCAR-8
SF-295 = system: SF-295
SK-MEL-2 = system: SK-MEL-2
SNB-19 = system: SNB-19
SNB-78 = system: SNB-78
SW-620 = system: SW-620
U-251 = system: U-251
OVCAR-3 = system: OVCAR-3
RXF 393 = system: RXF 393

Measured: GI50

CCC1C(=O)OCc2c1cc1n(c2=O)CCC12OCCO2 (centres undefined)
inactive: A498 > 100 µM | DLD-1 > 100 µM | HT-29 > 100 µM | LOX IMVI > 100 µM | LXFL 529 > 100 µM | NCI-H226 > 100 µM | OVCAR-8 > 100 µM | SF-295 > 100 µM | SK-MEL-2 > 100 µM | SNB-19 > 100 µM | SNB-78 > 100 µM | SW-620 > 100 µM | U-251 > 100 µM

O=C(O)c1c[nH]c2c(ccc3ncccc32)c1=O
inactive: A498 > 100 µM | DLD-1 > 100 µM | HT-29 > 100 µM | LOX IMVI > 100 µM | LXFL 529 > 100 µM | OVCAR-3 > 100 µM | OVCAR-8 > 100 µM | RXF 393 > 100 µM | SK-MEL-2 > 100 µM | SNB-19 > 100 µM | SNB-78 > 100 µM | SW-620 > 100 µM | U-251 > 100 µM

O=[N+]([O-])c1cc(I)cc(/C=N/NS(=O)(=O)c2ccc(F)cc2)c1O
inactive: A498 36.1 µM | DLD-1 36.5 µM | HT-29 18.7 µM | LOX IMVI 27 µM | LXFL 529 20.7 µM | OVCAR-3 19 µM | OVCAR-8 23.6 µM | RXF 393 27 µM | SF-295 33.2 µM | SK-MEL-2 18 µM | SNB-19 31 µM | SNB-78 23.3 µM | SW-620 32.4 µM | U-251 22.4 µM

O=[N+]([O-])c1ccc(NSc2ccccc2)cc1
inactive: A498 2.37 µM | DLD-1 24.8 µM | LOX IMVI 13.1 µM | LXFL 529 14.3 µM | OVCAR-3 34.8 µM | OVCAR-8 19.8 µM | RXF 393 20 µM | SF-295 27.6 µM | SK-MEL-2 42.9 µM | SNB-19 70.3 µM | SNB-78 38.3 µM | SW-620 24.2 µM | U-251 29.7 µM

Cc1cc(C)nc(Sc2c([N+](=O)[O-])ncn2C)n1
inactive: A498 > 100 µM | DLD-1 > 100 µM | HT-29 > 100 µM | LOX IMVI 57.1 µM | LXFL 529 99.8 µM | NCI-H226 > 100 µM | OVCAR-3 > 100 µM | OVCAR-8 > 100 µM | SF-295 > 100 µM | SK-MEL-2 > 100 µM | SNB-19 > 100 µM | SNB-78 > 100 µM | SW-620 > 100 µM | U-251 > 100 µM

Cc1ccc(S(=O)(=O)C2c3nc4ccccc4cc3-c3nc4ccccc4nc32)cc1 (centres undefined)
inactive: A498 > 100 µM | DLD-1 > 100 µM | LOX IMVI > 100 µM | LXFL 529 > 100 µM | OVCAR-3 > 100 µM | OVCAR-8 > 100 µM | SK-MEL-2 > 100 µM | SNB-19 > 100 µM | SNB-78 67 µM | SW-620 > 100 µM | U-251 > 100 µM

O=[N+]([O-])c1ccc(-c2csc(=[N+]3CCCCC3)s2)cc1
inactive: A498 2.18 µM | DLD-1 18.3 µM | HT-29 6.04 µM | LOX IMVI 26.1 µM | LXFL 529 5.93 µM | OVCAR-3 13.9 µM | OVCAR-8 3.48 µM | RXF 393 > 69.2 µM | SF-295 2.71 µM | SK-MEL-2 24.9 µM | SNB-19 4.88 µM | SNB-78 44.1 µM | SW-620 13.2 µM | U-251 2.54 µM

COc1ccc(CCn2c(=O)c3ccccc3n(C)c2=O)cc1
inactive: A498 62.2 µM | DLD-1 28.6 µM | HT-29 23.3 µM | LXFL 529 26.1 µM | OVCAR-3 34.4 µM | OVCAR-8 58.6 µM | SF-295 30.2 µM | SK-MEL-2 20.5 µM | SNB-19 > 100 µM | SNB-78 36.5 µM | SW-620 15.9 µM | U-251 66.8 µM
